Measured values reported in patent US20260028326A1, “COMPOUND BASED ON ISOINDOLINE-SUBSTITUTED GLUTARIMIDE BACKBONE AND USE THEREOF” (GLUETACS THERAPEUTICS (SHANGHAI) CO., LTD., priority 2022, published 2026).

Target: human Cereblon WT GST-tagged protein (Homo sapiens (Human), UniProt Q96SW2)
Test: CRBN-binding affinity, HTRF (CEREBLON BINDING kit)
Outline: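 HTRF competition readout: compounds compete with a thalidomide-Re conjugate for GST-tagged wild-type human CRBN detected via Eu-labelled anti-GST antibody. Inhibition rate derived relative to protein-free blank wells.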

human Cereblon WT GST-tagged protein, sequence (Q96SW2 whole entry): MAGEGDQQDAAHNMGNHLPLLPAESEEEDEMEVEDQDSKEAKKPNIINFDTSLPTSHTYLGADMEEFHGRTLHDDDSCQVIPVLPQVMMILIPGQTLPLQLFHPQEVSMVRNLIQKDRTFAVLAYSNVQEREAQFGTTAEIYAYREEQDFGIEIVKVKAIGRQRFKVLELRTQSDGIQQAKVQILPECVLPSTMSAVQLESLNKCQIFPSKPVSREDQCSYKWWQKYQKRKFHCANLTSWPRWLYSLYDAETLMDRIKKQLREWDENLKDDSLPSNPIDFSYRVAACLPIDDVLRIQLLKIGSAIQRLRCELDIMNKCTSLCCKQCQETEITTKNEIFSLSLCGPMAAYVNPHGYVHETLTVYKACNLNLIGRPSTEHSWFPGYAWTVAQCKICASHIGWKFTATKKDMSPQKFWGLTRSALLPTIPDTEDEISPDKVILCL

| IC50 | SMILES |
| --- | --- |
| 830 nM | O=C1CCC(N2Cc3ccc(CN4CCN(CC5=C(c6ccc(F)cc6)CCCC5)CC4)cc3C2=O)C(=O)N1 (centres unmarked) [GT-05465, 3-(6-((4-((4′-fluoro-3,4,5,6-tetrahydro-[1,1′-biphenyl]-2-yl)methyl)piperazin-1-yl)methyl)-1-oxoisoindolin-2-yl)piperidine-2,6-dione] |
| 1500 nM | O=C1CCC(N2C(=O)c3ccc(CN4CCN(C(=O)C5=C(c6ccc(F)cc6)CCCC5)CC4)cc3C2=O)C(=O)N1 (centres unmarked) [GT-05468, 2-(2,6-dioxopiperidin-3-yl)-5-((4-(4′-fluoro-3,4,5,6-tetrahydro-[1,1′-biphenyl]-2-carbonyl)piperazin-1-yl)methyl)isoindoline-1,3-dione] |
| 980 nM | O=C1CCC(N2Cc3ccc(CN4CCN(C(=O)C5=C(c6ccc(F)cc6)CCCC5)CC4)cc3C2=O)C(=O)N1 (centres unmarked) [GT-05470, 3-(6-((4-(4′-fluoro-3,4,5,6-tetrahydro-[1,1′-biphenyl]-2-carbonyl)piperazin-1-yl)methyl)-1-oxoisoindolin-2-yl)piperidine-2,6-dione] |
| 1080 nM | O=C1CCC(N2Cc3c(CN4CCN(C(=O)C5=C(c6ccc(F)cc6)CCCC5)CC4)cccc3C2=O)C(=O)N1 (centres unmarked) [GT-05471, 3-(4-((4-(4′-fluoro-3,4,5,6-tetrahydro-[1,1′-biphenyl]-2-carbonyl)piperazin-1-yl)methyl)-1-oxoisoindolin-2-yl)piperidine-2,6-dione] |
| 1170 nM | O=C1CCC(N2Cc3cc(CN4CCN(C(=O)C5=C(c6ccc(F)cc6)CCCC5)CC4)cc(F)c3C2=O)C(=O)N1 (centres unmarked) [GT-05474, 3-(7-fluoro-5-((4-(4′-fluoro-3,4,5,6-tetrahydro-[1,1′-biphenyl]-2-carbonyl)piperazin-1-yl)methyl)-1-oxoisoindolin-2-yl)piperidine-2,6-dione] |
| 510 nM | CC1(C)CCC(CN2CC(=Cc3ccc4c(c3)CN(C3CCC(=O)NC3=O)C4=O)C2)=C(c2ccc(F)cc2)C1 (centres unmarked) [GT-05483, 3-(5-((1-((4′-fluoro-5,5-dimethyl-3,4,5,6-tetrahydro-[1,1′-biphenyl]-2-yl)methyl)azetidin-3-ylidene)methyl)-1-oxoisoindolin-2-yl)piperidine-2,6-dione] |
| 360 nM | O=C1CCC(N2Cc3cc(C(O)C4(O)CN(C(=O)c5ccccc5-c5ccc(Cl)cc5)C4)ccc3C2=O)C(=O)N1 (centres unmarked) [GT-05484, 3-(5-((1-(4′-chloro-[1,1′-biphenyl]-2-carbonyl)-3-hydroxyazetidin-3-yl)(hydroxy)methyl)-1-oxoisoindolin-2-yl)piperidine-2,6-dione] |
| 740 nM | CC1(C)CCC(CN2CC3CCC2CN3Cc2ccc3c(c2)C(=O)N(C2CCC(=O)NC2=O)C3)=C(c2ccc(Cl)cc2)C1 (centres unmarked) [GT-05485, 3-(6-((5-((4′-chloro-5,5-dimethyl-3,4,5,6-tetrahydro-[1,1′-biphenyl]-2-yl)methyl)-2,5-diazabicyclo[2.2.2]octan-2-yl)methyl)-1-oxoisoindolin-2-yl)piperidine-2,6-dione] |
| 1560 nM | O=C1CCC(N2Cc3c(C(=O)N4CCN(Cc5ccccc5-c5ccc(Cl)cc5)CC4)cccc3C2=O)C(=O)N1 (centres unmarked) [GT-05486, 3-(4-(4-((4′-chloro-[1,1′-biphenyl]-2-yl)methyl)piperazine-1-carbonyl)-1-oxoisoindolin-2-yl)piperidine-2,6-dione] |
| 650 nM | CC1(C)CCC(C(=O)N2CCC(Cc3ccc4c(c3)CN(C3CCC(=O)NC3=O)C4=O)CC2)=C(c2ccc(F)cc2)C1 (centres unmarked) [GT-05487, 3-(5-((1-(4′-fluoro-5,5-dimethyl-3,4,5,6-tetrahydro-[1,1′-biphenyl]-2-carbonyl)piperidin-4-yl)methyl)-1-oxoisoindolin-2-yl)piperidine-2,6-dione] |
| 600 nM | CC1(C)CCC(C(=O)N2CC(Cc3ccc4c(c3)CN(C3CCC(=O)NC3=O)C4=O)C2)=C(c2ccc(F)cc2)C1 (centres unmarked) [GT-05488, 3-(5-((1-(4′-fluoro-5,5-dimethyl-3,4,5,6-tetrahydro-[1,1′-biphenyl]-2-carbonyl)azetidin-3-yl)methyl)-1-oxoisoindolin-2-yl)piperidine-2,6-dione] |
| 610 nM | CC1(C)CCC(C(=O)N2CC(=Cc3ccc4c(c3)CN(C3CCC(=O)NC3=O)C4=O)C2)=C(c2ccc(F)cc2)C1 (centres unmarked) [GT-05489, 3-(5-((1-(4′-fluoro-5,5-dimethyl-3,4,5,6-tetrahydro-[1,1′-biphenyl]-2-carbonyl)azetidin-3-ylidene)methyl)-1-oxoisoindolin-2-yl)piperidine-2,6-dione] |
| 760 nM | CC1(C)CCC(CN2CC(Cc3ccc4c(c3)CN(C3CCC(=O)NC3=O)C4=O)C2)=C(c2ccc(F)cc2)C1 (centres unmarked) [GT-05493, 3-(5-((1-((4′-fluoro-5,5-dimethyl-3,4,5,6-tetrahydro-[1,1′-biphenyl]-2-yl)methyl)azetidin-3-yl)methyl)-1-oxoisoindolin-2-yl)piperidine-2,6-dione] |
| 670 nM | CC1(C)CCC(CN2CC(O)(C(O)c3ccc4c(c3)CN(C3CCC(=O)NC3=O)C4=O)C2)=C(c2ccc(F)cc2)C1 (centres unmarked) [GT-05499, 3-(5-((1-((4′-fluoro-5,5-dimethyl-3,4,5,6-tetrahydro-[1,1′-biphenyl]-2-yl)methyl)-3-hydroxyazetidin-3-yl)(hydroxy)methyl)-1-oxoisoindolin-2-yl)piperidine-2,6-dione] |
| 810 nM | CC1(C)CCC(CN2CCCN(C(=O)c3ccc4c(c3)CN(C3CCC(=O)NC3=O)C4=O)CC2)=C(c2ccc(F)cc2)C1 (centres unmarked) [GT-05505, 3-(5-(4-((4′-fluoro-5,5-dimethyl-3,4,5,6-tetrahydro-[1,1′-biphenyl]-2-yl)methyl)-1,4-diazepane-1-carbonyl)-1-oxoisoindolin-2-yl)piperidine-2,6-dione] |
| 540 nM | CC1(C)CCC(CN2CCC3(CC2)CN(Cc2ccc4c(c2)CN(C2CCC(=O)NC2=O)C4=O)C3)=C(c2ccc(F)cc2)C1 (centres unmarked) [GT-05506, 3-(5-((7-((4′-fluoro-5,5-dimethyl-3,4,5,6-tetrahydro-[1,1′-biphenyl]-2-yl)methyl)-2,7-diazaspiro[3.5]nonan-2-yl)methyl)-1-oxoisoindolin-2-yl)piperidine-2,6-dione] |

| SMILES | IC50 |
| --- | --- |
| O=C1CCC(N2Cc3c(ccc(CN4C5CC4CN(C(=O)C4=C(c6ccc(F)cc6)CCCC4)C5)c3F)C2=O)C(=O)N1 (centres unmarked) [GT-05475, 3-(4-fluoro-5-((3-(4′-fluoro-3,4,5,6-tetrahydro-[1,1′-biphenyl]-2-carbonyl)-3,6-diazabicyclo[3.1.1]heptan-6-yl)methyl)-1-oxoisoindolin-2-yl)piperidine-2,6-dione] | 910 nM |
| O=C1CCC(N2Cc3cc(CN4C5CC4CN(C(=O)C4=C(c6ccc(F)cc6)CCCC4)C5)c(F)cc3C2=O)C(=O)N1 (centres unmarked) [GT-05476, 3-(6-fluoro-5-((3-(4′-fluoro-3,4,5,6-tetrahydro-[1,1′-biphenyl]-2-carbonyl)-3,6-diazabicyclo[3.1.1]heptan-6-yl)methyl)-1-oxoisoindolin-2-yl)piperidine-2,6-dione] | 1200 nM |
| O=C1CCC(N2Cc3cc(CN4C5CC4CN(C(=O)C4=C(c6ccc(F)cc6)CCCC4)C5)cc(F)c3C2=O)C(=O)N1 (centres unmarked) [GT-05477, 3-(7-fluoro-5-((3-(4′-fluoro-3,4,5,6-tetrahydro-[1,1′-biphenyl]-2-carbonyl)-3,6-diazabicyclo[3.1.1]heptan-6-yl)methyl)-1-oxoisoindolin-2-yl)piperidine-2,6-dione] | 660 nM |
| O=C1CCC(N2Cc3c(CN4C5CC4CN(C(=O)C4=C(c6ccc(F)cc6)CCCC4)C5)cccc3C2=O)C(=O)N1 (centres unmarked) [GT-05478, 3-(4-((3-(4′-fluoro-3,4,5,6-tetrahydro-[1,1′-biphenyl]-2-carbonyl)-3,6-diazabicyclo[3.1.1]heptan-6-yl)methyl)-1-oxoisoindolin-2-yl)piperidine-2,6-dione] | 1120 nM |
| O=C1CCC(N2Cc3ccc(CN4C5CC4CN(C(=O)C4=C(c6ccc(F)cc6)CCCC4)C5)cc3C2=O)C(=O)N1 (centres unmarked) [GT-05479, 3-(6-((3-(4′-fluoro-3,4,5,6-tetrahydro-[1,1′-biphenyl]-2-carbonyl)-3,6-diazabicyclo[3.1.1]heptan-6-yl)methyl)-1-oxoisoindolin-2-yl)piperidine-2,6-dione] | 720 nM |
| O=C1CCC(N2Cc3cccc(CN4C5CC4CN(C(=O)C4=C(c6ccc(F)cc6)CCCC4)C5)c3C2=O)C(=O)N1 (centres unmarked) [GT-05480, 3-(7-((3-(4′-fluoro-3,4,5,6-tetrahydro-[1,1′-biphenyl]-2-carbonyl)-3,6-diazabicyclo[3.1.1]heptan-6-yl)methyl)-1-oxoisoindolin-2-yl)piperidine-2,6-dione] | 1740 nM |
| CC1(C)CCC(C(=O)N2C3CCC2CN(c2ccc4c(c2)CN(C2CCC(=O)NC2=O)C4=O)C3)=C(c2ccc(F)cc2)C1 (centres unmarked) [GT-05491, 3-(5-(8-(4′-fluoro-5,5-dimethyl-3,4,5,6-tetrahydro-[1,1′-biphenyl]-2-carbonyl)-3,8-diazabicyclo[3.2.1]octan-3-yl)-1-oxoisoindolin-2-yl)piperidine-2,6-dione] | 970 nM |
| CC1(C)CCC(C(=O)N2CC3CCC(C2)N3c2ccc3c(c2)CN(C2CCC(=O)NC2=O)C3=O)=C(c2ccc(F)cc2)C1 (centres unmarked) [GT-05492, 3-(5-(3-(4′-fluoro-5,5-dimethyl-3,4,5,6-tetrahydro-[1,1′-biphenyl]-2-carbonyl)-3,8-diazabicyclo[3.2.1]octan-8-yl)-1-oxoisoindolin-2-yl)piperidine-2,6-dione] | 830 nM |
| CC1(C)CCC(CN2CC3CCC(C2)N3c2ccc3c(c2)CN(C2CCC(=O)NC2=O)C3=O)=C(c2ccc(F)cc2)C1 (centres unmarked) [GT-05498, 3-(5-(3-((4′-fluoro-5,5-dimethyl-3,4,5,6-tetrahydro-[1,1′-biphenyl]-2-yl)methyl)-3,8-diazabicyclo[3.2.1]octan-8-yl)-1-oxoisoindolin-2-yl)piperidine-2,6-dione] | 1520 nM |
| CC1(C)CCC(CN2C3CCC2CN(c2ccc4c(c2)CN(C2CCC(=O)NC2=O)C4=O)C3)=C(c2ccc(F)cc2)C1 (centres unmarked) [GT-05500, 3-(5-(8-((4′-fluoro-5,5-dimethyl-3,4,5,6-tetrahydro-[1,1′-biphenyl]-2-yl)methyl)-3,8-diazabicyclo[3.2.1]octan-3-yl)-1-oxoisoindolin-2-yl)piperidine-2,6-dione] | 1870 nM |
